The target of the test is cloned human glucagon receptor (Homo sapiens, UniProt P47871). The experiment in a line: Glucagon Receptor (hGlucR) Binding Assay.
Sequence of cloned human glucagon receptor (P47871 26-477): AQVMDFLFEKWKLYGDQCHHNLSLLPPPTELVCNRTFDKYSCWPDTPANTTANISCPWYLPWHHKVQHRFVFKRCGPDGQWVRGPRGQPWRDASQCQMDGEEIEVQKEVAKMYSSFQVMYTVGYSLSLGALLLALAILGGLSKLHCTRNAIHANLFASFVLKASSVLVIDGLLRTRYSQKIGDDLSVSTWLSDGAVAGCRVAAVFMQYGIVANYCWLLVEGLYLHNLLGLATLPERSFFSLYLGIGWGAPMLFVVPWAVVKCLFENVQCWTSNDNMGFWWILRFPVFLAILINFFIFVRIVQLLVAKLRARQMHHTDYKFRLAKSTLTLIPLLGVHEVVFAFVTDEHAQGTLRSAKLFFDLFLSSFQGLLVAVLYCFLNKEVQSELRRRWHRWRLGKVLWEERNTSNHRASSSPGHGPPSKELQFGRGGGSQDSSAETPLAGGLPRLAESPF

Procedure: This plasmid DNA was transfected into 293 HEK cells and selec ted with 200 ug/mL Hygromycin.
Crude plasma membranes are prepared using cells from suspension culture. The cells are lysed on ice in hypotonic buffer containing 25 mM Tris HCL, pH 7.5, 1 mM MgCl2, DNAsel, 20 u/mL, and Roche Complete Inhibitors-without EDTA. The cell suspension is homogenized with a glass dounce homogenizer using a Teflon pestle for 25 strokes. The homogenate is centrifuged at 4° C. at 1800×g for 15 mins. The supernate is collected and the pellet is resuspended in hypotonic buffer and rehomogenized. The mixture is centrifuged at 1800×g for 15 mins. The second supernate is combined with the first supernate. The combined supernates are recentrifuged at 1800×g for 15 mins to clarify. The clarified supernate is transferred to high speed tubes and centrifuged at 25000×g for 30 minutes at 4° C. The membrane pellet is resuspended in homogenization buffer and stored as frozen aliquots at −80° C. freezer until needed.
The specific activity is 2200 Ci/mmol.
The binding buffer contains 25 mM Hepes, pH 7.4, 2.5 mM CaCl2, 1 mM MgCl2, 0.1% fatty acid free BSA, (ICN), 0.003% tween-20, and Roche Complete Inhibitors without EDTA. […] Test compounds are dissolved in DMSO and serially diluted in DMSO. […] Plates are read with a MicroBeta after 14 hours of settling time at room temp. […]

Broadly, the Ki is the dissociation constant of the complex between target and ligand, obtained from inhibition or displacement. The low end stands for a stronger hold on the target, the high end for a looser hold on the target. `CC(Oc1ccc(C(=O)NCCC(=O)O)cc1)c1ccc(-c2ccc(C(F)(F)F)cc2)nc1` (racemic): the Ki came out at 801 nM.

`CCC(COc1ccc(C(=O)NCCC(=O)O)cc1)c1ccc(-c2ccc(C(F)(F)F)cc2)cc1` (racemic) registered a Ki of 951 nM.
